Experimental data taken from the NIST ThermoML archive (doi:10.1021/je2003012).

Assay: relative permittivity at various frequencies (dimensionless); wn = mass fraction of the nth substance listed
Conditions: Liquid, direct capacitance:P =

O=C=O [carbon dioxide] + CCO
Conditions	relative permittivity
304.9 K, 29800 kPa, w2 = 0.152	2.85
312.8 K, 8000 kPa, w2 = 0.212	2.8
312.8 K, 9300 kPa, w2 = 0.212	2.86
312.8 K, 11200 kPa, w2 = 0.212	2.94
312.8 K, 11500 kPa, w2 = 0.212	2.94
312.8 K, 14200 kPa, w2 = 0.212	3
312.8 K, 14300 kPa, w2 = 0.212	3.01
312.8 K, 14900 kPa, w2 = 0.212	3.03
312.8 K, 15800 kPa, w2 = 0.212	3.05
312.8 K, 17400 kPa, w2 = 0.212	3.11
312.8 K, 18000 kPa, w2 = 0.212	3.14
312.8 K, 20000 kPa, w2 = 0.212	3.17
312.8 K, 20600 kPa, w2 = 0.212	3.18
312.8 K, 22200 kPa, w2 = 0.212	3.22
312.8 K, 22800 kPa, w2 = 0.212	3.23
312.8 K, 23700 kPa, w2 = 0.212	3.25
312.8 K, 26300 kPa, w2 = 0.212	3.3
312.8 K, 28100 kPa, w2 = 0.212	3.32
312.8 K, 28400 kPa, w2 = 0.212	3.34
312.8 K, 30800 kPa, w2 = 0.212	3.37
313 K, 9700 kPa, w2 = 0.05	1.63
313 K, 9800 kPa, w2 = 0.05	1.64
313 K, 9900 kPa, w2 = 0.05	1.65
313 K, 11300 kPa, w2 = 0.05	1.7
313 K, 11700 kPa, w2 = 0.05	1.7
313 K, 11800 kPa, w2 = 0.05	1.7
313 K, 13200 kPa, w2 = 0.05	1.74
313 K, 13700 kPa, w2 = 0.05	1.74
313 K, 15100 kPa, w2 = 0.05	1.77
313 K, 15700 kPa, w2 = 0.05	1.78
313 K, 17400 kPa, w2 = 0.05	1.8
313 K, 17500 kPa, w2 = 0.05	1.8
313 K, 19200 kPa, w2 = 0.05	1.82
313 K, 20700 kPa, w2 = 0.05	1.83
313 K, 21600 kPa, w2 = 0.05	1.84
313 K, 23500 kPa, w2 = 0.05	1.86
313 K, 25300 kPa, w2 = 0.05	1.87
313 K, 25400 kPa, w2 = 0.05	1.87
313 K, 27400 kPa, w2 = 0.05	1.89
313 K, 30400 kPa, w2 = 0.05	1.91
313.1 K, 9700 kPa, w2 = 0.1	1.98
313.1 K, 10100 kPa, w2 = 0.152	2.37
313.1 K, 10200 kPa, w2 = 0.1	2
313.1 K, 10900 kPa, w2 = 0.152	2.39
313.1 K, 11000 kPa, w2 = 0.1	2.03
313.1 K, 11800 kPa, w2 = 0.152	2.42
313.1 K, 12000 kPa, w2 = 0.1	2.05
313.1 K, 12700 kPa, w2 = 0.1	2.08
313.1 K, 12700 kPa, w2 = 0.152	2.45
313.1 K, 13100 kPa, w2 = 0.1	2.09
313.1 K, 13700 kPa, w2 = 0.1	2.11
313.1 K, 13800 kPa, w2 = 0.152	2.47
313.1 K, 14600 kPa, w2 = 0.152	2.49
313.1 K, 14800 kPa, w2 = 0.1	2.13
313.1 K, 15700 kPa, w2 = 0.152	2.52
313.1 K, 15800 kPa, w2 = 0.1	2.15
313.1 K, 16800 kPa, w2 = 0.152	2.54
313.1 K, 17000 kPa, w2 = 0.1	2.17
313.1 K, 17700 kPa, w2 = 0.1	2.18
313.1 K, 17800 kPa, w2 = 0.152	2.56
313.1 K, 18800 kPa, w2 = 0.1	2.19
313.1 K, 18800 kPa, w2 = 0.152	2.58
313.1 K, 19500 kPa, w2 = 0.152	2.59
313.1 K, 19800 kPa, w2 = 0.1	2.2
313.1 K, 20800 kPa, w2 = 0.152	2.61
313.1 K, 21600 kPa, w2 = 0.152	2.62
313.1 K, 21900 kPa, w2 = 0.1	2.23
313.1 K, 22100 kPa, w2 = 0.1	2.23
313.1 K, 22400 kPa, w2 = 0.1	2.24
313.1 K, 22600 kPa, w2 = 0.152	2.63
313.1 K, 23500 kPa, w2 = 0.152	2.64
313.1 K, 24100 kPa, w2 = 0.1	2.26
313.1 K, 24400 kPa, w2 = 0.1	2.26
313.1 K, 24500 kPa, w2 = 0.152	2.66
313.1 K, 25500 kPa, w2 = 0.152	2.67
313.1 K, 25800 kPa, w2 = 0.1	2.28
313.1 K, 26400 kPa, w2 = 0.1	2.28
313.1 K, 26500 kPa, w2 = 0.152	2.68
313.1 K, 27500 kPa, w2 = 0.152	2.69
313.1 K, 27700 kPa, w2 = 0.1	2.3
313.1 K, 27800 kPa, w2 = 0.1	2.3
313.1 K, 27900 kPa, w2 = 0.152	2.7
313.1 K, 28300 kPa, w2 = 0.1	2.3
313.1 K, 28400 kPa, w2 = 0.152	2.71
313.1 K, 29300 kPa, w2 = 0.1	2.31
313.1 K, 29300 kPa, w2 = 0.152	2.72
313.1 K, 29500 kPa, w2 = 0.1	2.32
322.4 K, 10500 kPa, w2 = 0.1	1.86
